From patent US12336981B2, “Compounds and compositions for the inhibition of NAMPT” (Valo Health, Inc., priority 2010, dated 2025)
Read-outs that look alike come from different tables or passages of the source.

How the values were obtained:
NAMPT = target: T1, NAMPT (Homo sapiens, UniProt P43490); assay: Biochemical inhibition assay: NAMPT enzymatic reaction, NMN quantified by mass spectrometry; conditions: read-out: Biochem IC50
T1 construct: His tag; host or cells: E. coli
Outline: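 Inhibition of E. coli-expressed His-tagged human NAMPT, measured as NMN formation by mass spectrometry after a 30 min room-temperature reaction containing 1 μM NAM, 100 μM PRPP and 2.5 mM ATP.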

A2780 cells = assay: In-vitro cell proliferation assay (SRB), A2780 cells; type: cell-based; conditions: Homo sapiens, A2780, 72 h, A2780 cells, 72 hours, read-out: A2780 IC50
Outline: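 Proliferation is assessed by sulforhodamine B staining following a 72-hour incubation with compound dilutions containing 0.1% DMSO.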

T1 sequence (P43490 whole entry): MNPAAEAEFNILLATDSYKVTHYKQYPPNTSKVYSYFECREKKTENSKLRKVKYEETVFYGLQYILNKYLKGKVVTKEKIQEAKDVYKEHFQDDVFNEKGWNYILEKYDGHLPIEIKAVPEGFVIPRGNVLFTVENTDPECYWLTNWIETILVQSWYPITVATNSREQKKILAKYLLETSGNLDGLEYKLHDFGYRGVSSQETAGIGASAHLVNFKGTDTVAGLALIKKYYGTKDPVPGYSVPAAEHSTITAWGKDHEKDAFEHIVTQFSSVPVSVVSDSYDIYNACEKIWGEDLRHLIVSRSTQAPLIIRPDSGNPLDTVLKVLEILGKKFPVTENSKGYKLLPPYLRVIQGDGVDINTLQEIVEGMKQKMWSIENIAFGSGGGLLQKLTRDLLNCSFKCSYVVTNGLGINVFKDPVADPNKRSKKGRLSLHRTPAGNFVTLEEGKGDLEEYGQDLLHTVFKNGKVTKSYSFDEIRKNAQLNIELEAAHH

## Cc1cc(Cl)cc(S(=O)(=O)c2ccc(CNC(=O)c3cc4ccncc4s3)cc2)c1 [N-({4-[(3-chloro-5-methylbenzene)sulfonyl]phenyl}methyl)thieno[2,3-c]pyridine-2-carboxamide]
NAMPT; NAMPT enzymatic reaction
  IC50: 4.5 nM
A2780 cells; SRB
  IC50: 1.6 nM

## O=C(NCc1ccc(S(=O)(=O)c2cccc3ccsc23)cc1)c1cc2ccncc2o1 [N-{[4-(1-benzothiophene-7-sulfonyl)phenyl]methyl}furo[2,3-c]pyridine-2-carboxamide]
NAMPT; NAMPT enzymatic assay
  IC50: 4.9 nM
A2780 cells; SRB
  IC50: 13.9 nM

## O=C(NCc1ccc(S(=O)(=O)c2ccc(F)c(C(F)(F)F)c2)cc1)c1cc2ccncc2o1
NAMPT; NAMPT enzymatic assay
  IC50: 8.2 nM
A2780 cells; SRB
  IC50: 7.2 nM

## COc1cc(C)cc(OC)c1S(=O)(=O)c1ccc(CNC(=O)c2cnc3[nH]ncc3c2)cc1
NAMPT; NAMPT enzymatic reaction
  IC50: 100 to 1000 nM
A2780 cells; SRB
  IC50: 100 to 1000 nM

## Cc1cnc(S(=O)(=O)c2ccc(CNC(=O)c3cnc4nccn4c3)cc2)n1C [N-{[4-(1,5-dimethyl-1H-imidazole-2-sulfonyl)phenyl]methyl}imidazo[1,2-a]pyrimidine-6-carboxamide]
NAMPT; NAMPT enzymatic assay
  IC50: 32.9 nM
A2780 cells; SRB
  IC50: 1000 to 10000 nM

## CN(C)C(=O)c1ccccc1S(=O)(=O)c1ccc(CNC(=O)c2cnc3nccn3c2)cc1 [N-[(4-{[2-(dimethylcarbamoyl)benzene]sulfonyl}phenyl)methyl]imidazo[1,2-a]pyrimidine-6-carboxamide]
NAMPT; NAMPT enzymatic assay
  IC50: 100 to 1000 nM
A2780 cells; SRB
  IC50: 1000 to 10000 nM

## COc1cc(C(F)(F)F)ccc1S(=O)(=O)c1ccc(CNC(=O)c2ccc3nccn3c2)cc1 [N-[(4-{[2-methoxy-4-(trifluoromethyl)benzene]sulfonyl}phenyl)methyl]imidazo[1,2-a]pyridine-6-carboxamide]
NAMPT; NAMPT enzymatic assay
  IC50: 26.4 nM
A2780 cells; SRB
  IC50: 9.84 nM

## O=C(NCc1ccc(S(=O)(=O)c2cccc(OC(F)F)c2)cc1)c1cc2ccncc2o1
NAMPT; NAMPT enzymatic assay
  IC50: 2.8 nM
A2780 cells; SRB
  IC50: 3 nM

## CCOc1cc(S(=O)(=O)c2ccc(CNC(=O)c3ccc4nccn4c3)cc2)ccc1F
NAMPT; NAMPT enzymatic reaction
  IC50: 17 nM
A2780 cells; SRB
  IC50: 6 nM

## O=C(NCc1ccc(S(=O)(=O)c2cccc3cccnc23)cc1)c1cc2ccncc2o1 [N-{[4-(quinoline-8-sulfonyl)phenyl]methyl}furo[2,3-c]pyridine-2-carboxamide]
NAMPT; NAMPT enzymatic assay
  IC50: 7.6 nM
A2780 cells; SRB
  IC50: 6 nM

## Cn1ncc2cc(S(=O)(=O)c3ccc(CNC(=O)c4cc5ccncc5s4)cc3)ccc21 [N-{[4-(1-methyl-1H-indazole-5-sulfonyl)phenyl]methyl}thieno[2,3-c]pyridine-2-carboxamide]
NAMPT; NAMPT enzymatic assay
  IC50: 1.5 nM
A2780 cells; SRB
  IC50: 1.6 nM

## Cc1cc(C)c(S(=O)(=O)c2ccc(CNC(=O)c3cnc4[nH]ncc4c3)cc2)cc1C [N-({4-[(2,4,5-trimethylbenzene)sulfonyl]phenyl}methyl)-1H-pyrazolo[3,4-b]pyridine-5-carboxamide]
NAMPT; NAMPT enzymatic reaction
  IC50: 31.3 nM
A2780 cells; SRB
  IC50: 19.3 nM

## COc1ccc(S(=O)(=O)c2ccc(CNC(=O)c3cnc4[nH]ncc4c3)cc2)c(OC)n1 [N-{[4-(2,6-dimethoxypyridine-3-sulfonyl)phenyl]methyl}-1H-pyrazolo[3,4-b]pyridine-5-carboxamide]
NAMPT; NAMPT enzymatic assay
  IC50: 30.7 nM
A2780 cells; SRB
  IC50: 2 nM

## O=C(NCc1ccc(S(=O)(=O)N2CCCCC2)cc1)c1ccc2nc[nH]c2c1 [N-{[4-(piperidine-1-sulfonyl)phenyl]methyl}-1H-1,3-benzodiazole-5-carboxamide]
NAMPT; NAMPT enzymatic reaction
  IC50: 21 nM
A2780 cells; SRB assay
  IC50: 10 nM

## CCCOc1cccc(S(=O)(=O)c2ccc(CNC(=O)c3ccc4nccn4c3)cc2)c1
NAMPT; NAMPT enzymatic reaction
  IC50: 4.2 nM
A2780 cells; SRB
  IC50: 6.3 nM

## Cc1cc(C)c(S(=O)(=O)c2ccc(CNC(=O)c3ccc4nccn4c3)cc2)cc1C [N-({4-[(2,4,5-trimethylbenzene)sulfonyl]phenyl}methyl)imidazo[1,2-a]pyridine-6-carboxamide]
NAMPT; NAMPT enzymatic reaction
  IC50: 9.34 nM
A2780 cells; SRB
  IC50: 14.1 nM

## Cn1cc2ccc(S(=O)(=O)c3ccc(CNC(=O)c4cc5ccncc5o4)cc3)cc2n1 [N-{[4-(2-methyl-2H-indazole-6-sulfonyl)phenyl]methyl}furo[2,3-c]pyridine-2-carboxamide]
NAMPT; NAMPT enzymatic assay
  IC50: 3.4 nM
A2780 cells; SRB
  IC50: 2.8 nM

## O=C(NCc1ccc(S(=O)(=O)c2ccc(Cl)c(Cl)c2)cc1)c1cnc2[nH]ncc2c1 [N-({4-[(3,4-dichlorobenzene)sulfonyl]phenyl}methyl)-1H-pyrazolo[3,4-b]pyridine-5-carboxamide]
NAMPT; NAMPT enzymatic reaction
  IC50: 6.7 nM
A2780 cells; SRB
  IC50: 5.5 nM

## O=C(NCc1ccc(S(=O)(=O)c2cc(F)cc(N3CCOCC3)c2)cc1)c1cc2cnccc2[nH]1
NAMPT; NAMPT enzymatic assay
  IC50: 4 nM
A2780 cells; SRB
  IC50: 0.8 nM

## O=C(NCc1ccc(S(=O)(=O)c2cccc(OC(F)(F)F)c2)cc1)c1cnc2[nH]ncc2c1
NAMPT; NAMPT enzymatic assay
  IC50: 20.4 nM
A2780 cells; SRB
  IC50: 7.1 nM

## O=C(NCc1ccc(S(=O)(=O)c2cccc3ccccc23)cc1)c1cnc2[nH]ncc2c1 [N-{[4-(naphthalene-1-sulfonyl)phenyl]methyl}-1H-pyrazolo[3,4-b]pyridine-5-carboxamide]
NAMPT; NAMPT enzymatic assay
  IC50: 9.1 nM
A2780 cells; SRB
  IC50: 3.68 nM

## CSc1ccc(S(=O)(=O)c2ccc(CNC(=O)c3cc4ccncc4s3)cc2)cc1F
NAMPT; NAMPT enzymatic assay
  IC50: 2.2 nM
A2780 cells; SRB
  IC50: 2 nM

## O=C(NCc1ccc(S(=O)(=O)c2cncc(C(F)(F)F)c2)cc1)c1ccc2nccn2c1 [N-({4-[5-(trifluoromethyl)pyridine-3-sulfonyl]phenyl}methyl)imidazo[1,2-a]pyridine-6-carboxamide]
NAMPT; NAMPT enzymatic assay
  IC50: 9 nM
A2780 cells; SRB
  IC50: 1.3 nM

## O=C(NCc1ccc(S(=O)(=O)c2ccc(N3CCOCC3)nc2)cc1)c1cc2ccncc2o1 [N-({4-[6-(morpholin-4-yl)pyridine-3-sulfonyl]phenyl}methyl)furo[2,3-c]pyridine-2-carboxamide]
NAMPT; NAMPT enzymatic assay
  IC50: 2 nM
A2780 cells; SRB
  IC50: 0.9 nM

## O=C(NCc1ccc(S(=O)(=O)c2ccc(-n3cccn3)c(F)c2)cc1)c1ccc2nccn2c1 [N-[(4-{[3-fluoro-4-(1H-pyrazol-1-yl)benzene]sulfonyl}phenyl)methyl]imidazo[1,2-a]pyridine-6-carboxamide]
NAMPT; NAMPT enzymatic assay
  IC50: 5.37 nM
A2780 cells; SRB
  IC50: 3.41 nM

## CCOc1ccc(S(=O)(=O)c2ccc(CNC(=O)c3cnc4nccn4c3)cc2)cc1F
NAMPT; NAMPT enzymatic reaction
  IC50: 0.9 nM
A2780 cells; SRB
  IC50: 3.1 nM

## COc1cc(-n2cccn2)ccc1S(=O)(=O)c1ccc(CNC(=O)c2cc3ccncc3o2)cc1
NAMPT; NAMPT enzymatic assay
  IC50: 6.5 nM
A2780 cells; SRB
  IC50: 6 nM

## O=C(NCc1ccc(S(=O)(=O)c2ccccc2)cc1)c1cnc2[nH]ccc2c1 [N-{[4-(benzenesulfonyl)phenyl]methyl}-1H-pyrrolo[2,3-b]pyridine-5-carboxamide]
NAMPT; NAMPT enzymatic reaction
  IC50: 1910 nM
A2780 cells; SRB assay
  IC50: > 30000 nM

## Cc1cc(C)n(-c2cccc(S(=O)(=O)c3ccc(CNC(=O)c4cnc5nccn5c4)cc3)c2)n1
NAMPT; NAMPT enzymatic assay
  IC50: 1.8 nM
A2780 cells; SRB
  IC50: 4.1 nM

## O=C(NCc1ccc(S(=O)(=O)c2cccnc2C(F)(F)F)cc1)c1cc2ccncc2o1 [N-({4-[2-(trifluoromethyl)pyridine-3-sulfonyl]phenyl}methyl)furo[2,3-c]pyridine-2-carboxamide]
NAMPT; NAMPT enzymatic assay
  IC50: 30.4 nM
A2780 cells; SRB
  IC50: 27.9 nM

## CCOc1ccc(S(=O)(=O)c2ccc(CNC(=O)c3cnc4nccn4c3)cc2)cc1
NAMPT; NAMPT enzymatic reaction
  IC50: 2 nM
A2780 cells; SRB
  IC50: 6.1 nM

## Cc1ccc(C)c(S(=O)(=O)c2ccc(CNC(=O)c3ccc4nccn4c3)cc2)c1 [N-({4-[(2,5-dimethylbenzene)sulfonyl]phenyl}methyl)imidazo[1,2-a]pyridine-6-carboxamide]
NAMPT; NAMPT enzymatic reaction
  IC50: 29.3 nM
A2780 cells; SRB
  IC50: 15.4 nM

## Cc1ccc(S(=O)(=O)c2ccc(CNC(=O)c3cc4ccncc4s3)cc2)cc1 [N-({4-[(4-methylbenzene)sulfonyl]phenyl}methyl)thieno[2,3-c]pyridine-2-carboxamide]
NAMPT; NAMPT enzymatic reaction
  IC50: 5 nM
A2780 cells; SRB assay
  IC50: 5 nM

## CCc1ccccc1S(=O)(=O)c1ccc(CNC(=O)c2cnc3[nH]ncc3c2)cc1 [N-({4-[(2-ethylbenzene)sulfonyl]phenyl}methyl)-1H-pyrazolo[3,4-b]pyridine-5-carboxamide]
NAMPT; NAMPT enzymatic reaction
  IC50: 8.4 nM
A2780 cells; SRB
  IC50: 13 nM

## NS(=O)(=O)c1cccc(S(=O)(=O)c2ccc(CNC(=O)c3cc4ccncc4s3)cc2)c1
NAMPT; NAMPT enzymatic reaction
  IC50: 2 nM
A2780 cells; SRB
  IC50: 12.1 nM

## COc1ccc(OC)c(S(=O)(=O)c2ccc(CNC(=O)c3cc4ccncc4o3)cc2)c1OC
NAMPT; NAMPT enzymatic reaction
  IC50: 39.9 nM
A2780 cells; SRB
  IC50: 66.7 nM

## COc1ccc(S(=O)(=O)c2ccc(CNC(=O)c3cnc4nccn4c3)cc2)cc1F [N-({4-[(3-fluoro-4-methoxybenzene)sulfonyl]phenyl}methyl)imidazo[1,2-a]pyrimidine-6-carboxamide]
NAMPT; NAMPT enzymatic reaction
  IC50: 1.7 nM
A2780 cells; SRB
  IC50: 8.3 nM

## CC(=O)c1cccc(S(=O)(=O)c2ccc(CNC(=O)c3cc4cnccc4[nH]3)cc2)c1 [N-({4-[(3-acetylbenzene)sulfonyl]phenyl}methyl)-1H-pyrrolo[3,2-c]pyridine-2-carboxamide]
NAMPT; NAMPT enzymatic reaction
  IC50: 12 nM
A2780 cells; SRB assay
  IC50: 6 nM

## CCc1ccc(S(=O)(=O)c2ccc(CNC(=O)c3cnc4nccn4c3)cc2)cc1
NAMPT; NAMPT enzymatic reaction
  IC50: 1.2 nM
A2780 cells; SRB
  IC50: 6.2 nM

## Cc1cc(-n2cccn2)ccc1S(=O)(=O)c1ccc(CNC(=O)c2cnc3[nH]ncc3c2)cc1
NAMPT; NAMPT enzymatic assay
  IC50: 27.1 nM
A2780 cells; SRB
  IC50: 23.5 nM

## O=C(NCc1ccc(S(=O)(=O)c2ccc(Cl)cc2)cc1)c1cnc2nccn2c1
NAMPT; NAMPT enzymatic reaction
  IC50: 2.5 nM
A2780 cells; SRB
  IC50: 23.6 nM

## O=C(NCc1ccc(S(=O)(=O)c2cc(F)ccc2CO)cc1)c1cnc2nccn2c1
NAMPT; NAMPT enzymatic assay
  IC50: 12.9 nM
A2780 cells; SRB
  IC50: 100 to 1000 nM

## CCOCc1ccccc1S(=O)(=O)c1ccc(CNC(=O)c2cnc3[nH]ncc3c2)cc1
NAMPT; NAMPT enzymatic assay
  IC50: 52 nM
A2780 cells; SRB
  IC50: 61.2 nM

## Cc1cc(C)c(S(=O)(=O)c2ccc(CNC(=O)c3cc4ccncc4o3)cc2)cc1C
NAMPT; NAMPT enzymatic reaction
  IC50: 9.1 nM
A2780 cells; SRB
  IC50: 14.1 nM

## O=C(NCc1ccc(S(=O)(=O)c2cnc3ccc(Cl)cn23)cc1)c1cnc2nccn2c1 [N-[(4-{6-chloroimidazo[1,2-a]pyridine-3-sulfonyl}phenyl)methyl]imidazo[1,2-a]pyrimidine-6-carboxamide]
NAMPT; NAMPT enzymatic assay
  IC50: 1.6 nM
A2780 cells; SRB
  IC50: 0.4 nM

## O=C(NCc1ccc(S(=O)(=O)c2ccc3ncccc3c2)cc1)c1cc2ccncc2o1 [N-{[4-(quinoline-6-sulfonyl)phenyl]methyl}furo[2,3-c]pyridine-2-carboxamide]
NAMPT; NAMPT enzymatic assay
  IC50: 7.3 nM
A2780 cells; SRB
  IC50: 5 nM
